From patent US20250164502A1, “Mutant Human Nax Proteins and Screening Methods” (Genentech, Inc., priority 2021, published 2025)
Where two headings read alike, the source gives them in different places.

How the values were obtained:
[1] = test system: Xenopus laevis oocytes; test: Current amplitude of Xenopus laevis oocytes expressing the constructs (function of construct); type: cell-based; conditions: voltage-step protocols
Procedure: (*p<0.05; **p<0.01; ****p<0.0001; one-way ANOVA, Dunnett's test against NaX.)
Oocytes were prepared as previously described^68. Healthy-looking stage V-VI oocytes were injected with 2.5-40 ng of RNA (in 5-41 nL) using a Nanoliter 2010 injector (World Precision Instruments). When excluding one or more construct, an equivalent volume of nuclease-free water was added to maintain a constant RNA concentration across different construct combinations. Injected oocytes were kept at 18° C., 140 rpm, in ND96 supplemented with 50 μg/mL gentamicin and 50 μg/mL tetracycline (in mM: 96 NaCl, 2 KCl, 1 MgCl2, 1.8 CaCl2), 2.5 sodium pyruvate, 0.5 theophylline, 5 HEPES; pH 7.4 with NaOH) for two to five days. Two-electrode voltage-clamp measurements were performed at room temperature using a Warner OC-725C Oocyte Clamp amplifier (Warner Instrument Corp, USA) and under constant perfusion with ND96 solution (in mM: 96 NaCl, 2 KCl, 1 MgCl2, 1.8 CaCl2, 5 HEPES; pH 7.4 with NaOH). For ion selectivity experiments, external solutions contained 115 mM of test cations as chloride salts, 1.2 mM CaCl2, 2 mM MgCl2, 5 mM HEPES (pH 7.4 with the corresponding hydroxide). […] The voltage dependence of ion current was determined using a protocol consisting of steps from a holding potential of 0 mV to voltages ranging from +80 to −100 mV for 1 s in 20 mV increment. […]

[2] = test system: HEK293T cells; test: Whole-cell patch clamp of HEK293T cells expressing NaX-QTT, reversal potential and ion selectivity; type: cell-based, human
Procedure: (§1) HEK293T cells expressing NaX- or NaX-QTT-eGFP-2×FLAG were seeded on glass cover slips an hour before whole-cell patch-clamping experiments. For a more physiological condition (FIGS. 4D and 7B), the extracellular solution contained 150 mM NaCl, 5 mM KCl, 0.5 mM CaCl2, 1.2 mM MgCl2, 10 mM HEPES, and 13 mM D-(+)-glucose (pH 7.4) with NaOH, ˜320 mOsm/L, and the intracellular solution contained 140 mM CsCl, 10 mM CsF, 5 mM EGTA, 10 mM HEPES, and 2 mM Na2ATP (pH 7.2) with CsOH, ˜304 mOsm/L. To determine if NaX-QTT was cation-permeable, we first substituted all extracellular cations with NMDG^+ (FIG. 4E). Extracellular solution contained 150 mM NMDG and 10 mM HEPES (D-(+)-glucose was added accordingly to achieve osmolarity ˜325 mOsm/L and pH was adjusted to 7.4 with hydrochloric acid). To determine if NaX-QTT was anion-permeable, we substituted all Cl^− ions in both intra- and extracellular solutions with the large anion methanesulfonate (MS^−) (FIG. 15C). The extracellular solution contained 150 mM NaMS and 10 mM HEPES (D-(+)-glucose was added accordingly to achieve osmolarity ˜325 mOsm/L, and pH was adjusted to 7.4 with NaOH). The intracellular solution contained 136 mM NaMS, 10 mM NaF, 5 mM EGTA, 10 mM HEPES, and 2 mM Na2ATP (pH 7.2 with NaOH, ˜309 mOsm/L). The extracellular NMDG solution contained 150 NMDG and 10 mM HEPES (D-(+)-glucose was added accordingly to achieve osmolarity ˜325 mOsm/L, and pH was adjusted to 7.4 with methanesulfonic acid).
For ion-selectivity experiments (FIGS. 4E and 5A) (i) involving monovalent cations, the extracellular solution contained 150 mM XCl, 10 mM HEPES, and D-(+)-glucose was added accordingly to achieve osmolarity ˜325 mOsm/L, and the pH was adjusted to 7.4 with XOH, where X indicates the cation of interest (Na^+, K^+, Li+ or Cs+); (ii) involving Ca^2+, the extracellular solution contained 110 mM CaCl2, 10 mM HEPES, and D-(+)-glucose was added accordingly to achieve osmolarity ˜325 mOsm/L, and the pH was adjusted to 7.4 with Ca(OH)2; (iii) the intracellular solution contained 136 mM NaCl, 10 mM NaF, 5 mM EGTA, 10 mM HEPES, and 2 mM Na2ATP (pH 7.2) with NaOH, ˜309 mOsm/L.
(§2) For data analysis, raw current traces were typically filtered using 8-pole Bessel low-pass filter at 500-800 Hz. […] For ion-selectivity experiments performed with Na^+ intracellular solution (FIGS. 4E and 5A), liquid junction potential (LJP) was measured with reference to the Na^+ intracellular solution and corrected after recording. Relative ion permeabilities (PNa/PX) were calculated using the equation PX/PNa=[Na^+]IC exp(ErevF/RT)/[X^+]EC (X=Na, K, Li or Cs), where F is Faraday's constant, R is the gas constant, […], and Erevs were measured from the −80- to +80-m V ramp (corrected for LJP).

[3] = target: T1, human NaX-QTT (Homo sapiens, UniProt Q01118, F724Q/I1189T/I1492T); test: Two-electrode voltage-clamp of Xenopus laevis oocytes expressing human NaX-QTT with blockers or multivalent cations; type: cell-based
T1 construct: expressed in transfected cells; host or cells: Xenopus laevis oocytes injected with in vitro transcribed capped RNA
T1 sequence (Q01118 whole entry F724Q/I1189T/I1492T): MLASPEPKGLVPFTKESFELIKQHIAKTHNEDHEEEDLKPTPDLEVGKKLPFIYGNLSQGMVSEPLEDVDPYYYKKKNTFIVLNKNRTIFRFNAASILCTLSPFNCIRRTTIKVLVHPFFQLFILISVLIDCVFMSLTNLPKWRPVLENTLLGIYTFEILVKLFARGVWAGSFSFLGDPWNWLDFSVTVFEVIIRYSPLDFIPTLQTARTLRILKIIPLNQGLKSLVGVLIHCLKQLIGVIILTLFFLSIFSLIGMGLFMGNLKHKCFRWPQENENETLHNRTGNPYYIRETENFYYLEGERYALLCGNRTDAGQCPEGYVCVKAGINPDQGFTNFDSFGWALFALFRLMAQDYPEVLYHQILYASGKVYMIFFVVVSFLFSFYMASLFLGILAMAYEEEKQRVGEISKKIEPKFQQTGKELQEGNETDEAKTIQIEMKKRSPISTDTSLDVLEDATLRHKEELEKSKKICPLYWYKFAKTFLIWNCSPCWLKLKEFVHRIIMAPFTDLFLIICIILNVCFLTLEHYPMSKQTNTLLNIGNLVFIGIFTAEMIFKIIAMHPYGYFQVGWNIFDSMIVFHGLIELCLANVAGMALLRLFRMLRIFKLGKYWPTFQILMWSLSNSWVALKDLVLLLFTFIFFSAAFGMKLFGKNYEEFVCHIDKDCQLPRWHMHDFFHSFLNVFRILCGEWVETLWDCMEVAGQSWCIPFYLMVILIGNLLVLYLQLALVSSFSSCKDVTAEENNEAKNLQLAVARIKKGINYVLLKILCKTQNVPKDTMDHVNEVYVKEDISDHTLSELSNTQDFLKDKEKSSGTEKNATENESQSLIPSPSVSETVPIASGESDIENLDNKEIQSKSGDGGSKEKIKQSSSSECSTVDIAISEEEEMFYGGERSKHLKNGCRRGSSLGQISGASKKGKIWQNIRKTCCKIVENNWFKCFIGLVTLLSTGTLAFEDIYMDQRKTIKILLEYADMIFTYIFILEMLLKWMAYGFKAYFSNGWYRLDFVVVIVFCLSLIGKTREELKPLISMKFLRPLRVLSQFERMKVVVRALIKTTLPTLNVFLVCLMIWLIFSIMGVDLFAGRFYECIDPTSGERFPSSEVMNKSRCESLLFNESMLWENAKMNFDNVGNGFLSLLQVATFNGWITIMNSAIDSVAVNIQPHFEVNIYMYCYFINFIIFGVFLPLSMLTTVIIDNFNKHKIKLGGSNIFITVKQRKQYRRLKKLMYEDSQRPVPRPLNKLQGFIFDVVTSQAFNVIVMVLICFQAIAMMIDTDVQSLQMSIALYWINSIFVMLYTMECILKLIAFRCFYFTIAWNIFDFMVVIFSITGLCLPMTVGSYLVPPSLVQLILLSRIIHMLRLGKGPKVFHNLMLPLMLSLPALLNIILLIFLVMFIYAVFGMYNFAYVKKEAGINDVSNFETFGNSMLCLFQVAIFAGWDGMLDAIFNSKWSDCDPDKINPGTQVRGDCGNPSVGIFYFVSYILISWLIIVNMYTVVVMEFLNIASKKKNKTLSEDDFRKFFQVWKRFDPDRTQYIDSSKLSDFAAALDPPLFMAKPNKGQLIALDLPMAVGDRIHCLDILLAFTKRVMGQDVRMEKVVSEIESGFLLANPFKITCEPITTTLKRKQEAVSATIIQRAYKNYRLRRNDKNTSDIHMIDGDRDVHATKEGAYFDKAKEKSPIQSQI
Procedure: (§3) FIGS. 5A-C show pharmacology of the human NaX-QTT channel. FIG. 5A, left and middle panels, show representative I-V currents from HEK293 cells expressing human NaX-QTT with indicated extracellular monovalent cations with or without indicated amounts of CaCl2 in the extracellular solution. Voltage ramp from −80 to +80 mV was applied.
Oocytes were prepared as previously described^68. Healthy-looking stage V-VI oocytes were injected with 2.5-40 ng of RNA (in 5-41 nL) using a Nanoliter 2010 injector (World Precision Instruments). When excluding one or more construct, an equivalent volume of nuclease-free water was added to maintain a constant RNA concentration across different construct combinations. Injected oocytes were kept at 18° C., 140 rpm, in ND96 supplemented with 50 μg/mL gentamicin and 50 μg/mL tetracycline (in mM: 96 NaCl, 2 KCl, 1 MgCl2, 1.8 CaCl2), 2.5 sodium pyruvate, 0.5 theophylline, 5 HEPES; pH 7.4 with NaOH) for two to five days. Two-electrode voltage-clamp measurements were performed at room temperature using a Warner OC-725C Oocyte Clamp amplifier (Warner Instrument Corp, USA) and under constant perfusion with ND96 solution (in mM: 96 NaCl, 2 KCl, 1 MgCl2, 1.8 CaCl2, 5 HEPES; pH 7.4 with NaOH). For ion selectivity experiments, external solutions contained 115 mM of test cations as chloride salts, 1.2 mM CaCl2, 2 mM MgCl2, 5 mM HEPES (pH 7.4 with the corresponding hydroxide). Data acquisition was performed using a Digidata 1550 digitizer (Molecular devices; sampled at 10 kHz) and pCLAMP 10 software (Molecular Devices). Microelectrodes from borosilicate glass capillaries (Harvard Apparatus) were prepared to have resistances around 0.2-1.0 MQ2 using a P-1000 Flaming/Brown Micropipette Puller System (Sutter Instrument) and backfilled with 3 M KCl. Aconitine and veratridine (Alomone Labs) were dissolved in DMSO to make 50 mM stocks, and were further diluted to 300 and 100 μM in ND96 for electrophysiological experiments. Other NaV activators (Alomone Labs; FIGS. 8A-D) were dissolved in water to make stock solutions. The voltage dependence of ion current was determined using a protocol consisting of steps from a holding potential of 0 mV to voltages ranging from +80 to −100 mV for 1 s in 20 mV increment.

[4] = test system: Xenopus laevis oocytes; test: Voltage dependence of activation and steady-state inactivation of mutant NaV channels; type: cell-based; conditions: NaV1.7 mutant
[5] = target: T1, human NaX-QTT; test: Whole-cell patch clamp of HEK293T cells expressing NaX-QTT, effect of extracellular Ca^2+; type: cell-based
Procedure: as §3
as §1, with “The intracellular solution contained 136 mM NaMS, 10 mM NaF, 5 mM EGTA, 10 mM HEPES, and 2 mM Na2ATP (pH 7.2 with NaOH, ˜309 mOsm/L). The extracellular NMDG solution contained 150 NMDG and 10 mM HEPES (D-(+)-glucose was added accordingly to achieve osmolarity ˜325 mOsm/L, and pH was adjusted to 7.4 with methanesulfonic acid).” left out
as §2

[6] = target: T2, human NaX (Homo sapiens, UniProt Q01118); test: Two-electrode voltage-clamp of oocytes expressing human NaX with classical NaV channel activators; type: cell-based; conditions: different voltage-step protocols in oocytes; wild-type human NaX
T2 construct: expressed in transfected cells; host or cells: Xenopus laevis oocytes injected with in vitro transcribed capped RNA
T2 sequence (Q01118 whole entry): as the sequence (Q01118 whole entry F724Q/I1189T/I1492T) above, with Q724F, T1189I, T1492I counted along it
Source text: FIGS. 8A-D show functional evaluation of human NaX in Xenopus laevis oocytes. FIGS. 8A, left panel, and 8B, left panel, show representative currents from Xenopus laevis oocytes expressing human NaX with the indicated pharmacological modulator present in the extracellular solution. […] FIGS. 8C, left panel, and 8D, left panel, show representative currents from oocytes expressing human NaX with the indicated proteins co-expressed. FIG. 8C, right panel, show I-V plots with steps between +80 and −100 mV, in 20 mV increments, from a HP of 0 mV.
Oocytes were prepared as previously described^68. Healthy-looking stage V-VI oocytes were injected with 2.5-40 ng of RNA (in 5-41 nL) using a Nanoliter 2010 injector (World Precision Instruments). When excluding one or more construct, an equivalent volume of nuclease-free water was added to maintain a constant RNA concentration across different construct combinations. Injected oocytes were kept at 18° C., 140 rpm, in ND96 supplemented with 50 μg/mL gentamicin and 50 μg/mL tetracycline (in mM: 96 NaCl, 2 KCl, 1 MgCl2, 1.8 CaCl2), 2.5 sodium pyruvate, 0.5 theophylline, 5 HEPES; pH 7.4 with NaOH) for two to five days. […] The voltage dependence of ion current was determined using a protocol consisting of steps from a holding potential of 0 mV to voltages ranging from +80 to −100 mV for 1 s in 20 mV increment.

[7] = reported for pathogenic mutation; cited from earlier work
[8] = at concentrations up to 300 μM, oocytes
[9] = 1 mM, oocytes, step from 0 to +80 mV

Construct 24: triple-mutant NaX channel construct (F724Q-I1189T-I1492T) with polar substitutions at three S6-gate lining positions
ionic currents of the construct expressed alone [1]: robust ionic currents | reversal potential ([2]; HEK293T cells, all extracellular cations replaced with NMDG): below −100 mV | reversal potential ([2]; HEK293T cells, physiological extracellular solution): +5 mV | discrimination between monovalent cations ([2]; extracellular monovalent cations 150 mM): does not effectively discriminate | reversal potential ([2]; symmetrical NaCl/NaCl, ramp −80 to +80 mV, 150 mM Na^+ intracellular): ~0 mV

COc1ccccc1OCC(O)CN1CCN(CC(=O)Nc2c(C)cccc2C)CC1 (centres unmarked) [ranolazine]
inhibition of NaX-QTT currents [3, 8]: strong inhibitory effects were not observed

Construct 25: L390E/I1189E/I1492E triple-mutant NaX channel construct
ionic currents of the construct expressed alone [1]: much lower current amplitudes

ΔLeu966: in-frame DII-S6 deletion in NaV1.7
hyperpolarization of activation [4]: −16 mV

CN(C)C(=O)C(CCN1CCC(O)(c2ccc(Cl)cc2)CC1)(c1ccccc1)c1ccccc1 [loperamide]
inhibition of NaX-QTT currents [3]: equally potent inhibitors

O=C1NC(=O)C(c2ccccc2)(c2ccccc2)N1 [phenytoin]
inhibition of NaX-QTT currents [3, 8]: strong inhibitory effects were not observed

[Zn+2] [Zn^2+]
inhibition of NaX-QTT currents [3, 9]: inhibited

Ser1269Phe: Ser1269Phe substitution in NaV1.7
depolarizing shift of activation [4]: ~8 mV

[Ca+2] [Ca^2+]
permeation through NaX-QTT ([5]; HEK293T cells, extracellular CaCl2): does not permeate | potency of extracellular Ca^2+ block on NaX relative to traditional NaV channels ([5]; NaX-QTT versus NaV channels): ~10 fold | inhibition of the outward Na^+ current ([5]; extracellular Ca^2+ 1 mM, HEK293T cells, NaX-QTT, at 80 mV): ~70%

[Co+2] [Co^2+]
inhibition of NaX-QTT currents [3, 9]: inhibited

CCN1C[C@]2(COC)[C@H](O)C[C@H](OC)[C@@]34[C@@H]5C[C@@]6(O)[C@H](OC(=O)c7ccccc7)[C@@H]5[C@@](OC(C)=O)([C@@H]([C@H](OC)[C@H]23)[C@@H]14)[C@@H](O)[C@@H]6OC [aconitine]
activation of human NaX-mediated currents [6]: did not invoke any clear human NaX-mediated currents

C=C[C@H]1C[N@@]2CC[C@H]1C[C@@H]2[C@@H](O)c1ccnc2ccc(OC)cc12 [quinidine]
inhibition of NaX-QTT currents ([3]; at high μM concentrations, oocytes): equally potent inhibitors

Ser211Pro: pathogenic Ser211Pro mutation in NaV1.7
hyperpolarization of channel activation [7]: −12 mV

NC1=N[C@H](O)[C@H]2[C@H]3O[C@]4(O)O[C@@H]([C@@H](O)[C@@]2(N1)[C@@H]4O)[C@]3(O)CO [tetrodotoxin]
inhibitory effect on NaX-QTT [3]: inhibitory effects

[Gd+3] [Gd^3+]
inhibition of NaX-QTT currents compared with Zn^2+ and Co^2+ ([3]; trivalent cation, oocytes): more potent

O=C(NCC1CCCCN1)c1cc(OCC(F)(F)F)ccc1OCC(F)(F)F (centres unmarked) [flecainide]
inhibition of NaX-QTT currents [3, 8]: strong inhibitory effects were not observed

B1: Ser209Phe: pathogenic Ser209Phe mutation in KCNQ1 (protein, UniProt P51787 1-676, looked up, variant S209F)
Potassium voltage-gated …: MAAASSPPRAERKRWGWGRLPGARRGSAGLAKKCPFSLELAEGGPAGGALYAPIAPGAPGPAPPASPAAPAAPPVASDLGPRPPVSLDPRVSIYSTRRPVLARTHVQGRVYNFLERPTGWKCFVYHFAVFLIVLVCLIFSVLSTIEQYAALATGTLFWMEIVLVVFFGTEYVVRLWSAGCRSKYVGLWGRLRFARKPISIIDLIVVVAFMVVLCVGSKGQVFATSAIRGIRFLQILRMLHVDRQGGTWRLLGSVVFIHRQELITTLYIGFLGLIFSSYFVYLAEKDAVNESGRVEFGSYADALWWGVVTVTTIGYGDKVPQTWVGKTIASCFSVFAISFFALPAGILGSGFALKVQQKQRQKHFNRQIPAAASLIQTAWRCYAAENPDSSTWKIYIRKAPRSHTLLSPSPKPKKSVVVKKKKFKLDKDNGVTPGEKMLTVPHITCDPPEERRLDHFSVDGYDSSVRKSPTLLEVSMPHFMRTNSFAEDLDLEGETLLTPITHISQLREHHRATIKVIRRMQYFVAKKKFQQARKPYDVRDVIEQYSQGHLNLMVRIKELQRRLDQSIGKPSLFISVSEKSKDRGSNTIGARLNRVEDKVTQLDQRLALITDMLHQLLSLHGGSTPGSGGPPREGGAHITQPCGSGGSVDPELFLPSNTLPTYEQLTVPRRGPDEGS
hyperpolarization of channel activation [7]: −45 mV
